Legend:
Test in all cases: KINOMEscan competition binding
Conditions in all cases: compound 10.0 µM
[1] = target: MAP3K12 (human) (UniProt Q12852)
[2] = target: SGK110 (human) (UniProt P0C264)
[3] = target: SBK1 (human) (UniProt Q52WX2)
[4] = target: CDC42BPB (human) (UniProt Q9Y5S2)
[5] = system: EGFR (human), P00533 [T790M/L858R]
[6] = target: MKNK1 (human) (UniProt Q9BUB5)
[7] = target: SRMS (human) (UniProt Q9H3Y6)
[8] = target: STK39 (human) (UniProt Q9UEW8)
[9] = target: CLK4 (human) (UniProt Q9HAZ1)
[10] = target: MYO3B (human) (UniProt Q8WXR4)
[11] = target: ERN1 (human) (UniProt O75460)
[12] = system: FLT3 (human), P36888 [R834Q]
[13] = target: TNNI3K (human) (UniProt Q59H18)
[14] = target: LATS2 (human) (UniProt Q9NRM7)
[15] = target: PKN2 (human) (UniProt Q16513)
[16] = target: GRK7 (human) (UniProt Q8WTQ7)
[17] = target: TLK1 (human) (UniProt Q9UKI8)
[18] = target: IKBKB (human) (UniProt O14920)
[19] = target: CSK (human) (UniProt P41240)
[20] = target: ACVRL1 (human) (UniProt P37023)
[21] = target: CDK2 (human) (UniProt P24941)
[22] = target: DYRK1B (human) (UniProt Q9Y463)
[23] = target: RPS6KA1 KD2 (human) (UniProt Q15418)
[24] = target: RPS6KA5 KD1 (human) (UniProt O75582)
[25] = target: IKBKE (human) (UniProt Q14164)
[26] = target: RPS6KA5 KD2 (human) (UniProt O75582)
[27] = target: NTRK1 (human) (UniProt P04629)
[28] = target: FER (human) (UniProt P16591)
[29] = target: TAOK2 (human) (UniProt Q9UL54)
[30] = target: ROCK2 (human) (UniProt O75116)
[31] = target: PRKG2 (human) (UniProt Q13237)
[32] = target: MKNK2 (human) (UniProt Q9HBH9)
[33] = target: MAPK4 (human) (UniProt P31152)
[34] = target: CSNK1E (human) (UniProt P49674)
[35] = target: PAK6 (human) (UniProt Q9NQU5)
[36] = target: DDR1 (human) (UniProt Q08345)
[37] = target: STK11 (human) (UniProt Q15831)
[38] = target: PIP5K1A (human) (UniProt Q99755)
[39] = system: KIT (human), P10721 [V559D]
[40] = target: SNRK (human) (UniProt Q9NRH2)
[41] = target: EPHB3 (human) (UniProt P54753)
Chain of EPHB3 (human) (P54753 whole entry, looked up): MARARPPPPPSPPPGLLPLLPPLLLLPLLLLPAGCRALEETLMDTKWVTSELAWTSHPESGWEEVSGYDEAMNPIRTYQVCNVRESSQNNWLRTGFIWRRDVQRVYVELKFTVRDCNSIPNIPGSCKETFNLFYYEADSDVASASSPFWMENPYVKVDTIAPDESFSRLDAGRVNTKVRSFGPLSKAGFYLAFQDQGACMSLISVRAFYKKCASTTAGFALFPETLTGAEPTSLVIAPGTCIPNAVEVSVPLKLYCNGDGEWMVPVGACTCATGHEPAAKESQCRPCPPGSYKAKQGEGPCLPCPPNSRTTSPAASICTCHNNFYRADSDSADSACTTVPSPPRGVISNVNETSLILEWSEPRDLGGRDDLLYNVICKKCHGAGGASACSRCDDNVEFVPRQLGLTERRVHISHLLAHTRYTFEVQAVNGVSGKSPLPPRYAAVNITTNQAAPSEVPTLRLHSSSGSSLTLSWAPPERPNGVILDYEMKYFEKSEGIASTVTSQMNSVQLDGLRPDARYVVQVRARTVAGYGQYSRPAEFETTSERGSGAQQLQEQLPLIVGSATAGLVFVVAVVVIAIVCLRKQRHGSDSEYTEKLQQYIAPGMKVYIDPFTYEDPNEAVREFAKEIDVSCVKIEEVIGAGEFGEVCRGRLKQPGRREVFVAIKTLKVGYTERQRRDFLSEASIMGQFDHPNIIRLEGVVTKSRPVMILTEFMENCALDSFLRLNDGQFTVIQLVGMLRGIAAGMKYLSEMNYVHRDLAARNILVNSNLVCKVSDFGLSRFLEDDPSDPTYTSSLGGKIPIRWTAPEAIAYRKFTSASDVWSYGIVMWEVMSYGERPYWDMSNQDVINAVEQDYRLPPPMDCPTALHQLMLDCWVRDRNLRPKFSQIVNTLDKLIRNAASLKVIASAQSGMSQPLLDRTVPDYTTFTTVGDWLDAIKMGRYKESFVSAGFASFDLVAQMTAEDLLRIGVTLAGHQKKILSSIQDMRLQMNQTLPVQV

Chain of MKNK1 (human) (Q9BUB5 whole entry, looked up): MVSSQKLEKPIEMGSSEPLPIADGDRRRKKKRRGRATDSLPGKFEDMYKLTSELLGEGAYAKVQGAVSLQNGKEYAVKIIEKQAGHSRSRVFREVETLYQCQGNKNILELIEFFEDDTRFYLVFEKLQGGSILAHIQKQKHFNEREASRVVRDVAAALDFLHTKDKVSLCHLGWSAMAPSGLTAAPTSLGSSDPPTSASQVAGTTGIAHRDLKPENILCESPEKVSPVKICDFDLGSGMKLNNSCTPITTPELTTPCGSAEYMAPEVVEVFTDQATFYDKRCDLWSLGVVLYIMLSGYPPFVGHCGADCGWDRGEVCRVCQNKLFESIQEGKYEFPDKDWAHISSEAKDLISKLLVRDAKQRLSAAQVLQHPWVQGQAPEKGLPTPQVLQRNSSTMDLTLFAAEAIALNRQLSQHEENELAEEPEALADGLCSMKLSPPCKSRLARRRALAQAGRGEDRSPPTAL
Chain of MAPK4 (human) (P31152 whole entry, looked up): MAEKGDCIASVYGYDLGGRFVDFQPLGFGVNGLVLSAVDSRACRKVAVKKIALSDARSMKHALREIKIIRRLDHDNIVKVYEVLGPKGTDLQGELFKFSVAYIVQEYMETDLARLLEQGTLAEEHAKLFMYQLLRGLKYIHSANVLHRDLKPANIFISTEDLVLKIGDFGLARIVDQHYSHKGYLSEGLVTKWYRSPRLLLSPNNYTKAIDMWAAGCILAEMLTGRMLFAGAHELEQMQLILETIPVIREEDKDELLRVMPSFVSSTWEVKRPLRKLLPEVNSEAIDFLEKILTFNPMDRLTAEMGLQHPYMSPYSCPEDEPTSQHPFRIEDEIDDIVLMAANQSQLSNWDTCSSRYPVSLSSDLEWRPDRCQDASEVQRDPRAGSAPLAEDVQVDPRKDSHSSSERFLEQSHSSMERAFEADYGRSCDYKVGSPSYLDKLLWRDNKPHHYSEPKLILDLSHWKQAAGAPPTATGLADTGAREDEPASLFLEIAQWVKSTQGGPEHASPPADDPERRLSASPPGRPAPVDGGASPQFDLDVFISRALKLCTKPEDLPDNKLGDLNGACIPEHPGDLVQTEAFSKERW
Chain of SBK1 (human) (Q52WX2 whole entry, looked up): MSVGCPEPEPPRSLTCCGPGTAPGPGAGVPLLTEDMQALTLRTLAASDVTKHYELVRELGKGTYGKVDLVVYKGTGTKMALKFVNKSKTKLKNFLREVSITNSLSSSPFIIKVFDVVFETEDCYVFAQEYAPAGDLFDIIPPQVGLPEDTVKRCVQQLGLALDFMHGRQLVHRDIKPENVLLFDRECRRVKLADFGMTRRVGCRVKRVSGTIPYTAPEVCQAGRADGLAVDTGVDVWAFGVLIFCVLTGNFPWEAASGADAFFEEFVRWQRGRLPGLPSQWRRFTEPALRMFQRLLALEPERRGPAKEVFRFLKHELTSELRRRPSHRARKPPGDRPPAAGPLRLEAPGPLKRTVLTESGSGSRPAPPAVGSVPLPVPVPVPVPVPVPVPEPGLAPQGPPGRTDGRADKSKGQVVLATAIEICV
Chain of TLK1 (human) (Q9UKI8 whole entry, looked up): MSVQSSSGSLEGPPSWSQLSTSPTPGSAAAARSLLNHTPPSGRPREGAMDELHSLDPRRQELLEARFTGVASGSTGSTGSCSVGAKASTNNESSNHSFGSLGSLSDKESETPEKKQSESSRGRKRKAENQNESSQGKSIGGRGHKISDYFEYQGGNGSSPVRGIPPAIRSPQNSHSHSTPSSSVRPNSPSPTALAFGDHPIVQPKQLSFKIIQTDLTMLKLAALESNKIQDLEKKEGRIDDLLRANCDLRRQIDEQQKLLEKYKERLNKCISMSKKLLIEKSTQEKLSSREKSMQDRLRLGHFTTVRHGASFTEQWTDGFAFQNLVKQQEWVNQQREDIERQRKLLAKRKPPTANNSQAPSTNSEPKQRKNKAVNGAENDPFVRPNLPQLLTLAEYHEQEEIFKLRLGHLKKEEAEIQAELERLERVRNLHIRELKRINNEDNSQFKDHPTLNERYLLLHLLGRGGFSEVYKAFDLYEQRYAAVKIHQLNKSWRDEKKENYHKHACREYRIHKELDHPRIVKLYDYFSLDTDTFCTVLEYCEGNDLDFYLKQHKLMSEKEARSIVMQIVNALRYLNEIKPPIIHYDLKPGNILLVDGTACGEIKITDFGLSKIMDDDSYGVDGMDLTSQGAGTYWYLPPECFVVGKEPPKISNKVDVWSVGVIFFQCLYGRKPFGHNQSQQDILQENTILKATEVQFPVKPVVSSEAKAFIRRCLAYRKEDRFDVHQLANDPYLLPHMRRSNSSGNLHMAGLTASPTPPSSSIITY
Chain of IKBKB (human) (O14920 whole entry, looked up): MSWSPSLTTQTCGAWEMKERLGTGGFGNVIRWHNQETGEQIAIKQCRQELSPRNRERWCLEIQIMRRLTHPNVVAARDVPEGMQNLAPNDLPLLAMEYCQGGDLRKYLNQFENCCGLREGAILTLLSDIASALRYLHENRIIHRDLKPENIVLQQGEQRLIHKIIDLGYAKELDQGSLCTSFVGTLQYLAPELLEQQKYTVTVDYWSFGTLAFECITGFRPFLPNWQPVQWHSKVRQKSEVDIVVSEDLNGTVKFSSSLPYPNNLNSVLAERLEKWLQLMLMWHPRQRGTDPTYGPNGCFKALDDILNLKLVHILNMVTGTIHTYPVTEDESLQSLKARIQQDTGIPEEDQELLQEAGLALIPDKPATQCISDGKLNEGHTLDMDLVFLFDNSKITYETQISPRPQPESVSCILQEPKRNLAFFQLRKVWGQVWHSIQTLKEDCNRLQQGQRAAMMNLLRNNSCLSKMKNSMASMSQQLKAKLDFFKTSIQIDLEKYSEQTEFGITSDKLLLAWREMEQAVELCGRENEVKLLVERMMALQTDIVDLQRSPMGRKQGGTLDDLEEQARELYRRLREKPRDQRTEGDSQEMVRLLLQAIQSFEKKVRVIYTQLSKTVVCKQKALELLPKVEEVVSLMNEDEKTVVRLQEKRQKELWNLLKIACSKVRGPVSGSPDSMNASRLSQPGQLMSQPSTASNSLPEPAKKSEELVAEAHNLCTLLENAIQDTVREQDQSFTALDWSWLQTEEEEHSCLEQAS
Chain of PAK6 (human) (Q9NQU5 whole entry, looked up): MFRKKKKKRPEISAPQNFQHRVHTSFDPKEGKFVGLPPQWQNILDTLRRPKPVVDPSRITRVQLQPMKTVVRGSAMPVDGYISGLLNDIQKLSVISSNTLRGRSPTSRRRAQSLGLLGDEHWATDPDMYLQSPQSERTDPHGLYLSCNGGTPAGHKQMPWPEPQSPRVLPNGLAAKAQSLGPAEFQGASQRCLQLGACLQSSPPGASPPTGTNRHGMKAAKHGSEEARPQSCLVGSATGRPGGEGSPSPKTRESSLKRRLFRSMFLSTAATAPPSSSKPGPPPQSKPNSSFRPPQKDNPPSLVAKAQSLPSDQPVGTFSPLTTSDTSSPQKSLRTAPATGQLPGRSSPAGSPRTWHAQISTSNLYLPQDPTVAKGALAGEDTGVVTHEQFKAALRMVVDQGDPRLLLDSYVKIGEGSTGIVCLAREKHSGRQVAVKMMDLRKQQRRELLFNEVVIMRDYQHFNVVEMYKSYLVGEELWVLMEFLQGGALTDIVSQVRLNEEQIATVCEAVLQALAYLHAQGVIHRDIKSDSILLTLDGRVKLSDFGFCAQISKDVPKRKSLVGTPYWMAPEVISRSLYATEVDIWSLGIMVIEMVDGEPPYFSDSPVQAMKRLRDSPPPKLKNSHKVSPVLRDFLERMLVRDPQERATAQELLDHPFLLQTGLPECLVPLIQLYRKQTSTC
Chain of SGK110 (human) (P0C264 whole entry, looked up): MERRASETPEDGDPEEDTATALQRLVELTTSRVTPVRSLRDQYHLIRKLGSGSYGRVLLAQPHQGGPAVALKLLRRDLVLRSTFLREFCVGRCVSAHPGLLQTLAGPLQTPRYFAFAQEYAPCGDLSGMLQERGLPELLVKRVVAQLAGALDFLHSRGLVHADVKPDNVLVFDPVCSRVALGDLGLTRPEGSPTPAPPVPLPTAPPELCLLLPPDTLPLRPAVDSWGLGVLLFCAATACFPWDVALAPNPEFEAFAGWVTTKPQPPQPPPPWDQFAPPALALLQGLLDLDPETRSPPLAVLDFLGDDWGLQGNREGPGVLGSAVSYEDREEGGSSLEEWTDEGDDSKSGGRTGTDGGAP

COC(=O)Nc1ccc(-c2nc(N3CCOCC3)c3cnn(C4CCN(C(=O)OC)CC4)c3n2)cc1 was tested, and the per cent of control [1] was 97%, the kinase still bound, per cent of control [2] was 92% and the kinase still bound, per cent of control [3] was 100%. For the same molecule, the kinase still bound, per cent of control [4] was 96%, the kinase still bound, per cent of control [5] was 100% and the kinase still bound, per cent of control [6] was 37%. It also gave a kinase still bound, per cent of control [7] of 78%, a per cent of control [8] of 67% and a kinase still bound, per cent of control [9] of 94%. For the same molecule, the kinase still bound, per cent of control [10] was 97%, the kinase still bound, per cent of control [11] was 100% and the kinase still bound, per cent of control [12] was 76%. The kinase still bound, per cent of control [13] was 100%, the kinase still bound, per cent of control [14] was 86% and the kinase still bound, per cent of control [15] was 100%. For the same molecule, the kinase still bound, per cent of control [16] was 100%, the kinase still bound, per cent of control [17] was 91% and the kinase still bound, per cent of control [18] was 74%. The kinase still bound, per cent of control [19] was 98%, the kinase still bound, per cent of control [20] was 100% and the per cent of control [21] was 91%. The kinase still bound, per cent of control [22] was 93%, the kinase still bound, per cent of control [23] was 100% and the kinase still bound, per cent of control [24] was 100%. It also gave a kinase still bound, per cent of control [25] of 81%, a kinase still bound, per cent of control [26] of 88% and a kinase still bound, per cent of control [27] of 71%. For the same molecule, the kinase still bound, per cent of control [28] was 100%, the kinase still bound, per cent of control [29] was 73% and the kinase still bound, per cent of control [30] was 79%. The kinase still bound, per cent of control [31] was 86%, the kinase still bound, per cent of control [32] was 40% and the kinase still bound, per cent of control [33] was 68%. It also gave a kinase still bound, per cent of control [34] of 72%, a kinase still bound, per cent of control [35] of 100% and a kinase still bound, per cent of control [36] of 100%. It also gave a kinase still bound, per cent of control [37] of 100%, a kinase still bound, per cent of control [38] of 98% and a kinase still bound, per cent of control [39] of 96%. The kinase still bound, per cent of control [40] was 100% and the kinase still bound, per cent of control [41] was 74%.
Work on CC(C)n1nc(-c2cc3cc(O)ccc3[nH]2)c2c(N)ncnc21 yielded a per cent of control [1] of 84%, a kinase still bound, per cent of control [2] of 100% and a kinase still bound, per cent of control [3] of 92%. The kinase still bound, per cent of control [4] was 71%, the kinase still bound, per cent of control [6] was 19% and the kinase still bound, per cent of control [7] was 61%. The per cent of control [8] was 97%, the kinase still bound, per cent of control [9] was 9.7% and the kinase still bound, per cent of control [10] was 19%. It also gave a kinase still bound, per cent of control [11] of 31%, a kinase still bound, per cent of control [12] of 16% and a kinase still bound, per cent of control [13] of 14%. The kinase still bound, per cent of control [14] was 41%, the kinase still bound, per cent of control [15] was 86% and the kinase still bound, per cent of control [16] was 2.9%. The kinase still bound, per cent of control [17] was 75%, the kinase still bound, per cent of control [18] was 84% and the kinase still bound, per cent of control [19] was 15%. The kinase still bound, per cent of control [20] was 6.7%, the per cent of control [21] was 69% and the kinase still bound, per cent of control [22] was 59%. The kinase still bound, per cent of control [23] was 46%, the kinase still bound, per cent of control [24] was 100% and the kinase still bound, per cent of control [25] was 70%. For the same molecule, the kinase still bound, per cent of control [26] was 22%, the kinase still bound, per cent of control [27] was 46% and the kinase still bound, per cent of control [28] was 64%. For the same molecule, the kinase still bound, per cent of control [29] was 1.2%, the kinase still bound, per cent of control [30] was 60% and the kinase still bound, per cent of control [32] was 4.5%. The kinase still bound, per cent of control [33] was 75%, the kinase still bound, per cent of control [34] was 0.1% and the kinase still bound, per cent of control [35] was 23%. The kinase still bound, per cent of control [36] was 6.4%, the kinase still bound, per cent of control [37] was 79% and the kinase still bound, per cent of control [38] was 62%. For the same molecule, the kinase still bound, per cent of control [39] was 0.3%, the kinase still bound, per cent of control [40] was 100% and the kinase still bound, per cent of control [41] was 81%.
In the case of CCC(=O)N1CCN(c2ccc(-n3c(=O)ccc4cnc5ccc(-c6cnc7ccccc7c6)cc5c43)cc2C(F)(F)F)CC1, the per cent of control [1] is reported as 100%, the kinase still bound, per cent of control [2] is reported as 94% and the kinase still bound, per cent of control [3] is reported as 88%. It also gave a kinase still bound, per cent of control [4] of 3.4%, a kinase still bound, per cent of control [5] of 100% and a kinase still bound, per cent of control [6] of 44%. For the same molecule, the kinase still bound, per cent of control [7] was 92%, the per cent of control [8] was 100% and the kinase still bound, per cent of control [9] was 49%. It also gave a kinase still bound, per cent of control [10] of 100%, a kinase still bound, per cent of control [11] of 100% and a kinase still bound, per cent of control [13] of 66%. It also gave a kinase still bound, per cent of control [14] of 100%, a kinase still bound, per cent of control [15] of 65% and a kinase still bound, per cent of control [16] of 100%. It also gave a kinase still bound, per cent of control [17] of 100%, a kinase still bound, per cent of control [18] of 61% and a kinase still bound, per cent of control [19] of 71%. The kinase still bound, per cent of control [20] was 83%, the per cent of control [21] was 6.2% and the kinase still bound, per cent of control [22] was 87%. For the same molecule, the kinase still bound, per cent of control [23] was 100%, the kinase still bound, per cent of control [24] was 100% and the kinase still bound, per cent of control [25] was 87%. For the same molecule, the kinase still bound, per cent of control [26] was 100%, the kinase still bound, per cent of control [27] was 64% and the kinase still bound, per cent of control [29] was 84%. The kinase still bound, per cent of control [30] was 50%, the kinase still bound, per cent of control [31] was 78% and the kinase still bound, per cent of control [32] was 54%. For the same molecule, the kinase still bound, per cent of control [33] was 80%, the kinase still bound, per cent of control [34] was 59% and the kinase still bound, per cent of control [35] was 77%. For the same molecule, the kinase still bound, per cent of control [36] was 100%, the kinase still bound, per cent of control [37] was 100% and the kinase still bound, per cent of control [38] was 89%. For the same molecule, the kinase still bound, per cent of control [39] was 50%, the kinase still bound, per cent of control [40] was 60% and the kinase still bound, per cent of control [41] was 85%.

Reference: the kinase profiling compilation of Christmann-Franck et al. (2016)
